# In EP0731710B1, “THYMOSINE ALPHA 1 CONTAINING COMPOSITIONS FOR THE TREATMENT OF PATIENTS HAVING DECOMPENSATED LIVER DISEASE” (ALPHA 1 BIOMEDICALS, INC., priority 1993, dated 2003):
# No end group written: not given here.
# Experiment: Tolerability / adverse effects of Thymosin alpha 1 in patients with cirrhosis and hepatic decompensation
# Type: in vivo, patient
# Experimental: Patient 2 was a person with very far-advanced cirrhosis secondary to long-standing chronic Hepatitis B infection. Their findings included jaundice, weakness, severe encephalopathy, hepato-renal syndrome with renal failure, and portal gastropathy secondary to increased portal vein pressure. They received Thymosin alpha 1 at a dose of 1.6 mg subcutaneously twice weekly under a compassionate use protocol in an attempt to cure their Hepatitis B virus infection so that they could received a liver transplant. […] Death was associated with complications of portal hypertension and cirrhosis, and not due to therapy with Thymosin alpha 1.
# They were started on Thymosin alpha 1 at a dose of 1.6 mg subcutaneously twice weekly, with the intention of treating them for 26 weeks. […] However, their therapy was discontinued after 46 injections because of complications of the cirrhosis. They expired about three weeks after their last injection. Their death was attributed to bleeding esophageal varices and hepatoma.
# In summary, the above three patients with cirrhosis and hepatic decompensation received Thymosin alpha 1 at a dose of 1.6 mg subcutaneously twice weekly for periods varying from 3.5 weeks to 6 months. In each case, the intent of therapy was to cure chronic Hepatitis B virus infection so that the patient could be considered for transplant. […] Two other patients, both of whom had far-advanced disease, died of complications of cirrhosis, with no evidence that Thymosin alpha 1 contributed to their deaths.
substance,measurement,setting,value
Ac-SDAAVDTSSEITTKDLKEKKEVVEEAEN [Thymosin alpha 1],side effects,"Patient 2, 1.6 mg subcutaneously twice weekly, 3 1/2 weeks of therapy",no side effects
same,adverse effects,"Patient 3, 1.6 mg subcutaneously twice weekly, 46 injections",no adverse effects
same,adverse effects due to Tα1,"three patients with cirrhosis and hepatic decompensation, 1.6 mg subcutaneously twice weekly for 3.5 weeks to 6 months",None of the patients reported any adverse effects
